Results from article PMC10054465, “Design, Synthesis, and Antiviral Activities of New Benzotriazole-Based Derivatives” (Pharmaceuticals, 2023).

melting point	Compound
211 to 212 °C	Cc1ccc(C(=O)Nc2cccc(Cn3nnc4cc(C)c(C)cc43)c2)cc1
203 to 206 °C	COc1ccc(C(=O)Nc2cccc(Cn3nnc4cc(C)c(C)cc43)c2)cc1
143 to 147 °C	Cc1cc2nnn(Cc3cccc(NC(=O)c4ccc(F)cc4)c3)c2cc1C
237 to 238 °C	Cc1cc2nnn(Cc3cccc(NC(=O)c4ccc(Br)cc4)c3)c2cc1C
242 to 247 °C	Cc1cc2nnn(Cc3cccc(NC(=O)c4ccc(C#N)cc4)c3)c2cc1C
201 to 203 °C	Cc1cc2nnn(Cc3cccc(NC(=O)c4ccc(C(F)(F)F)cc4)c3)c2cc1C
227 to 230 °C	Cc1cc2nnn(Cc3cccc(NC(=O)c4ccc([N+](=O)[O-])cc4)c3)c2cc1C
244 to 245 °C	CCNC(=O)Nc1cccc(Cn2nnc3cc(Cl)c(Cl)cc32)c1
> 300 °C	CCCNC(=O)Nc1cccc(Cn2nnc3cc(Cl)c(Cl)cc32)c1
232 to 233 °C	CCCCNC(=O)Nc1cccc(Cn2nnc3cc(Cl)c(Cl)cc32)c1
231 to 232 °C	O=C(Nc1cccc(Cn2nnc3cc(Cl)c(Cl)cc32)c1)NC1CCCC1
271 to 273 °C	CCNC(=O)Nc1cccc(Cn2nnc3cc(C)c(C)cc32)c1
189 to 191 °C	CCCNC(=O)Nc1cccc(Cn2nnc3cc(C)c(C)cc32)c1
202 to 204 °C	CCC(C)NC(=O)Nc1cccc(Cn2nnc3cc(C)c(C)cc32)c1 (centres unmarked)
195 to 197 °C	CCCCNC(=O)Nc1cccc(Cn2nnc3cc(C)c(C)cc32)c1
189 to 191 °C	Cc1cc2nnn(Cc3cccc(NC(=O)NC(C)(C)C)c3)c2cc1C
290 to 292 °C	Cc1cc2nnn(Cc3cccc(NC(=O)NC4CCCC4)c3)c2cc1C
233 to 235 °C	Cc1cc2nnn(Cc3cccc(NC(=O)NC4CCCCC4)c3)c2cc1C
233 to 235 °C	COc1ccc(NC(=O)Nc2cccc(Cn3nnc4cc(C)c(C)cc43)c2)cc1
206 to 208 °C	COc1cc(NC(=O)Nc2cccc(Cn3nnc4cc(C)c(C)cc43)c2)cc(OC)c1OC
245 to 247 °C	Cc1cc2nnn(Cc3cccc(NC(=O)Nc4ccc(F)cc4)c3)c2cc1C

melting point	Compound
249 to 251 °C	Cc1cc2nnn(Cc3cccc(NC(=O)Nc4ccc(Cl)cc4)c3)c2cc1C
192 to 195 °C	CCC(=O)Nc1ccc(Cn2nnc3ccccc32)cc1
242 to 243 °C	CC(=O)Nc1ccc(Cn2nnc3cc(F)c(F)cc32)cc1
240 to 242 °C	CCC(=O)Nc1ccc(Cn2nnc3cc(F)c(F)cc32)cc1
196 to 198 °C	COc1ccc(C(=O)Nc2ccc(Cn3nnc4cc(C)c(C)cc43)cc2)cc1
192 to 194 °C	Cc1cc2nnn(Cc3ccc(NC(=O)c4ccc([N+](=O)[O-])cc4)cc3)c2cc1C
245 to 246 °C	O=C(Nc1ccc(Cn2nnc3ccccc32)cc1)c1ccc([N+](=O)[O-])cc1
147 to 149 °C	COc1cc(C(=O)Nc2ccc(Cn3nnc4ccccc43)cc2)cc(OC)c1OC
229 to 231 °C	O=C(Nc1ccc(Cn2nnc3ccccc32)cc1)c1ccc(OC(F)(F)F)cc1
297 to 299 °C	Cc1ccc(C(=O)Nc2ccc(Cn3nnc4cc(F)c(F)cc43)cc2)cc1
240 to 242 °C	O=C(Nc1ccc(Cn2nnc3cc(F)c(F)cc32)cc1)c1ccc([N+](=O)[O-])cc1
241 to 242 °C	O=C(Nc1ccc(Cn2nnc3cc(F)c(F)cc32)cc1)c1ccc(F)cc1
263 to 264 °C	O=C(Nc1ccc(Cn2nnc3cc(F)c(F)cc32)cc1)c1ccc(Cl)cc1
235 to 236 °C	O=C(Nc1ccc(Cn2nnc3cc(F)c(F)cc32)cc1)c1ccc(Br)cc1
211 to 212 °C	CCNC(=O)Nc1ccc(Cn2nnc3cc(Cl)c(Cl)cc32)cc1
213 to 214 °C	CCCNC(=O)Nc1ccc(Cn2nnc3cc(Cl)c(Cl)cc32)cc1
216 to 217 °C	CCCCNC(=O)Nc1ccc(Cn2nnc3cc(Cl)c(Cl)cc32)cc1
130 to 132 °C	O=C(Nc1ccc(Cn2nnc3cc(Cl)c(Cl)cc32)cc1)NC1CCCCC1
160 to 162 °C	COc1cc(C(=O)Nc2cccc(Cn3nnc4cc(C)c(C)cc43)c2)cc(OC)c1OC [51b]
227 to 229 °C	Cc1cc2nnn(Cc3cccc(NC(=O)c4ccc(Cl)cc4)c3)c2cc1C [53b]
